In patent US20240301409A1, “Chemically Modified Small Activating RNA” (RACTIGEN THERAPEUTICS, priority 2021, published 2024):
Like-named read-outs stand apart in the source and are kept apart here. Oligonucleotides are written 5' to 3', each unit as a sugar letter and its base; * is a phosphorothioate linkage, no mark a phosphodiester; rarer units and linkages stand in square brackets, end groups in braces. Plain capitals give the bases only. m = 2'-O-methyl; r = 2'-OH (RNA); f = 2'-fluoro

Columns and labels:
RNase A = biological target: T1, RNase A (Bos taurus, UniProt P61823)
T1 sequence (P61823 27-150): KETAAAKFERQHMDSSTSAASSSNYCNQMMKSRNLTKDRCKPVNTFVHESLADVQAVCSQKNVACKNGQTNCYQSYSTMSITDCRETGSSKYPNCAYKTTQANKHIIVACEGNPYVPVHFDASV

[1] = system: Rag1-40 target sequence in the 3′ UTR of firefly luciferase, COS-1 cells
[2] = system: Rag1-40 target sequence in the 3′ UTR of firefly luciferase, COS-1 cells; assay: Analysis of off-target effects (pOff-Target dual luciferase reporter in COS-1 cells); details: lysed 48 hours after transfection, luciferase activity

Rag1-40-18: saRNA duplex: sense mCmCAACUCAUUCUCCAAG*U*C (SEQ ID NO 15); antisense fUACUfUGGAGAAfUGAGUfUGGfCA (SEQ ID NO 7) (sense CCAACUCAUUCUCCAAGUC; antisense UACUUGGAGAAUGAGUUGGCA; 2'-OMe, 2'-F, phosphorothioate modifications; modified_base (1)..(2) (1,2)=2′-O-methyl(2′-OMe); modified_base (17)..(19) (17,18,19)=phosphorothioate (PS) backbone modification; modified_base (1)..(20) (1,5,12,17,20)=2′-fluoro)
time to complete degradation (RNase A): ≤ 24 h
off-target effect compared to unmodified Rag1-40, in words [1]: mitigated or similar off-target effects

Rag1-40-2: saRNA duplex: sense mCmCAACUCAUUCUCCAAGmUmC (SEQ ID NO 5); antisense fUACUfUGGAGAAfUGAGUfUGGfCA (SEQ ID NO 7) (sense CCAACUCAUUCUCCAAGUC; antisense UACUUGGAGAAUGAGUUGGCA; 2'-OMe and 2'-F modifications; modified_base (1)..(19) (1,2,18,19)=2′-O-methyl(2′-OMe); modified_base (1)..(20) (1,5,12,17,20)=2′-fluoro)
time to complete degradation (RNase A): ≤ 24 h
off-target effect compared to unmodified Rag1-40, in words [1]: mitigated or similar off-target effects

Rag1-40-21: saRNA duplex: sense mCmCAACUCAUUCUCCAAG*U*C (SEQ ID NO 15); antisense UACUfUGGAGAAfUGAGUfUGG*fC*A (SEQ ID NO 10) (sense CCAACUCAUUCUCCAAGUC; antisense UACUUGGAGAAUGAGUUGGCA; 2'-OMe, 2'-F, phosphorothioates; modified_base (1)..(2) (1,2)=2′-O-methyl(2′-OMe); modified_base (17)..(19) (17,18,19)=phosphorothioate (PS) backbone modification; modified_base (5)..(20) (5,12,17,20)=2′-fluoro; modified_base (19)..(21) (19,20,21)=phosphorothioate (PS) backbone modification)
off-target effect compared to unmodified Rag1-40, in words [2]: mitigated or similar off-target effects

Rag1-40-23: saRNA duplex: sense mCmCAACUCAUUCUCCAAG*U*C (SEQ ID NO 15); antisense U*A*fCfUfUGGAGAAfUGAGfUfUGG*fC*A (SEQ ID NO 12) (sense CCAACUCAUUCUCCAAGUC; antisense UACUUGGAGAAUGAGUUGGCA; 2'-OMe, 2'-F, phosphorothioate modifications; modified_base (1)..(2) (1,2)=2′-O-methyl(2′-OMe); modified_base (17)..(19) (17,18,19)=phosphorothioate (PS) backbone modification; modified_base (2)..(21) (2,3,19,20,21)=phosphorothioate (PS) backbone modification; modified_base (3)..(20) (3,4,5,12,16,17,20)=2′-fluoro)
degradation of duplex at 96 hours (RNase A): little or no signs of degradation
off-target effect compared to unmodified Rag1-40, in words [1]: mitigated or similar off-target effects

Rag1-40-4: saRNA duplex: sense mCmCAACUCAUUCUCCAAGmUmC (SEQ ID NO 5); antisense fUACUfUGGAGAAfUGAGUfUGG*fC*A (SEQ ID NO 9) (sense mCmCrArArCrUrCrArUrUrCrUrCrCrArArGmUmC; antisense fUrArCrUfUrGrGrArGrArAfUrGrArGrUfUrGrG*fC*rA)
time to complete degradation (RNase A): ≤ 24 h
off-target effect compared to unmodified Rag1-40, in words [1]: completely inhibited

Rag1-40-20: saRNA duplex: sense mCmCAACUCAUUCUCCAAG*U*C (SEQ ID NO 15); antisense fUACUfUGGAGAAfUGAGUfUGG*fC*A (SEQ ID NO 9) (sense CCAACUCAUUCUCCAAGUC; antisense UACUUGGAGAAUGAGUUGGCA; 2'-OMe, 2'-F, phosphorothioate modifications; modified_base (1)..(2) (1,2)=2′-O-methyl(2′-OMe); modified_base (17)..(19) (17,18,19)=phosphorothioate (PS) backbone modification; modified_base (1)..(20) (1,5,12,17,20)=2′-fluoro; modified_base (19)..(21) (19,20,21)=phosphorothioate (PS) backbone modification)
time to complete degradation (RNase A): ≤ 24 h
off-target effect compared to unmodified Rag1-40, in words [1]: mitigated or similar off-target effects
